Data on 36 compounds can be found in PubChem BioAssay (NCI).

What all share (assay): NCI-60 cell line screen, 48 h
In assay [1] the test system is MDA-N.
Assay [2] concerns DMS 114 small cell lung.
The subject of assay [3] is HOP-18 NSCLC.
The subject of assay [4] is XF 498 CNS.
The subject of assay [5] is DLD-1 colon.
Assay [6] concerns DMS 273 small cell lung.
Assay [7] deals with LXFL 529 NSCLC.
Assay [8] has as its system KM20L2 colon.
The subject of assay [9] is RXF-631 renal.

Structures are written as SMILES.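 Each compound was tested at five concentrations against cells in 96-well plates for 48 hours. The concentration for 50% growth inhibition is given as GI50. TGI marks complete inhibition of growth.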

For the compound `CC1(C)CC(=O)C2=C(C1)OC(N)=C(c1nc(-c3ccccc3)cs1)C2c1ccc(Br)cc1` (configuration not stated), in [1], the GI50 is 74.3 mg/L and the TGI was > 150 mg/L.

In the case of `COc1ccc(-c2cc(C(=O)Nc3ccc(C)c(C)c3)nc(NC#N)n2)cc1`, the TGI in assay [2], in [3], in assay [4], in assay [5], in [6] and in assay [7] was > 100 µM in each case. Further, in assay [8], the TGI was > 100 µM.

For `NC(=O)c1csc(C2OC(COP(=O)(O)CP(=O)(O)OCC3OC(n4cnc5c(N)ncnc54)C(O)C3O)C(O)C2O)n1` (configuration not stated), the TGI in assay [2], in [9], in [3], in [4], in assay [5] and in [6] was > 100 µM in each case. For the same compound, the TGI in assay [7] and in assay [8] was > 100 µM each time.

As for `N#CC(C#N)c1ccc(C(=O)N2CCC[C@H]2CO)cc1`, the TGI in assay [2], in [9], in assay [3], in assay [5], in assay [6] and in [7] was > 100 µM in each case. In addition, the TGI in assay [8] was > 100 µM.

For the compound `C=C1CCC2[C@@H](CCC3[C@]2(C)CCC[C@]3(C)C(=O)OC)C1CC=O` (some centres not stated), the TGI in assay [2] is 34.7 µM; in assay [9], 37.2 µM; in assay [3], 29 µM; in assay [4], 28.6 µM; in [5], 42.9 µM; in assay [6], 40.7 µM. The TGI in assay [7] was found to be 30.1 µM; in assay [8] it was 35.7 µM. Besides, the GI50 in assay [9] was 20.9 µM.

Regarding `CC12CCC(=O)N1c1ccc([N+](=O)[O-])cc1N2` (configuration not stated), the TGI in [2], in assay [3], in assay [5], in assay [6], in assay [7] and in assay [8] was > 100 µM in each case.

Regarding `O=C(CC1SC(=Nc2ccccc2Cl)NC1=O)Nc1ccc(Cl)cc1Cl` (configuration not stated), the TGI in assay [2], in assay [9], in assay [3], in assay [4], in assay [5] and in assay [7] was > 100 µM in each case. In addition, in assay [8], the TGI is > 100 µM.

`c1ccc(CCc2cccnc2)nc1`: in [1], the TGI was > 100 µM.

For the compound `O=C(O)CCC(=O)c1ccc2sc3ccccc3c2c1`, in assay [1], the TGI is > 100 µM.

For the compound `CCOC(=O)/C(C#N)=C(O)/C(=C\c1ccc(Br)cc1)NC(=O)c1ccccc1`, the TGI in assay [2], in [9], in [3], in assay [5], in [6] and in [7] was > 100 µM each time. In [8], the TGI was > 100 µM.

`OC(C#Cc1ccccc1)(c1ccccc1)c1ccccc1`: the TGI in assay [1] was 61.7 µM.

With `CCC1(O)C(=O)OCc2c1cc1n(c2=O)Cc2cc3c(NC(=O)CN)cccc3nc2-1` (configuration not stated), the GI50 was 1.02 µM in assay [3]; 2.24 µM in [4]; 11.2 µM in assay [5]; 4.94 µM in assay [1]; 0.0963 µM in assay [6]; 5.3 µM in assay [7]. The GI50 in assay [8] was 1.77 µM. Moreover, the TGI was > 24.3 µM in assay [3]; 25.4 µM in assay [4]; > 100 µM in [5]; > 55.8 µM in assay [1]; 1.83 µM in [6]; > 75 µM in [7].

Regarding `O=S(=O)(c1cccc(N=C=S)c1)c1cccc(N=C=S)c1`, the TGI in assay [2] was 29.6 µM; in [5], 40.7 µM; in assay [6], 40.6 µM; in assay [7] it was 28.5 µM; in assay [8], > 100 µM.

As for `N#Cc1ccc(C=NC23CC4CC(CC(C4)C2)C3)cc1`, the TGI in assay [2], in assay [9], in [6] and in assay [8] was > 100 µM throughout.

With `O=C1Nc2ccccc2N=CC1NC(=O)C(c1ccccc1)c1ccccc1` (configuration not stated), the TGI in [2], in assay [9], in assay [3], in [5], in assay [6] and in [7] was > 100 µM in each case. Moreover, the TGI in assay [8] is > 100 µM.

As to `CCCCCCCCCCCCC(Br)C(=O)NCC(N)=O` (configuration not stated), the TGI came to 15.2 µM in [2]; 18.4 µM in [9]; 28.2 µM in assay [3]; 3.83 µM in assay [4]; 29.8 µM in [5]; 25 µM in assay [6]. Further, the TGI in assay [7] was found to be 21.5 µM; in [8] it was 42.5 µM.

On to `COCOCC/C=C/C=O`, for which the TGI in assay [2], in assay [3], in assay [4], in [5], in assay [7] and in assay [8] was > 100 µM throughout.

With `COCCNC(=O)C1C(=O)C(=O)N(CCOC)C1=O` (configuration not stated), the TGI in assay [2], in [9], in assay [3], in assay [5], in [6] and in assay [7] was > 100 µM throughout. The TGI in assay [8] is > 100 µM.

Take `COC(=O)[C@@]1(C(C)CC(=O)O)CCCCC1=O` (some centres not stated): the TGI in [2] is > 100 µM; in assay [3] it was > 100 µM; in assay [4], > 100 µM; in assay [5], > 100 µM; in [6], 39.7 µM; in [7], > 100 µM. In assay [8], the TGI was > 100 µM.

For the compound `C[CH2][Sn]([CH2]C)([O]C(=O)c1ccccc1OC)[O][Sn]([CH2]C)([CH2]C)[O]C(=O)c1ccccc1OC`, the GI50 in assay [2] is 30 µM; in assay [3] it was > 100 µM; in assay [4], > 100 µM; in assay [5], 50.2 µM; in assay [6], > 100 µM; in assay [7], 15.1 µM. Also, the GI50 in assay [8] is > 100 µM. Besides, the TGI in assay [2] is > 100 µM; in assay [3], > 100 µM; in assay [4], > 100 µM; in assay [5], > 100 µM; in assay [6], > 100 µM; in assay [7], 28.5 µM. In addition, in assay [8], the TGI was > 100 µM.

Turning to `CCCCC1(C)C=C/C(=C2/C(=O)O/C(=C\C(=O)O)C2=O)O1` (configuration not stated), the TGI in assay [9], in assay [3], in [4], in [6], in assay [7] and in assay [8] was > 100 µM throughout.

As for `Cc1nc(C(=O)O)c2ccccc2n1`, the TGI in assay [2], in [5], in [6], in assay [7] and in [8] was > 100 µM each time.

On to `O=c1[nH]cc(F)c(=O)n1C1OC(CO)C(O)C1O` (configuration not stated), for which the TGI in [2], in assay [3], in [4], in assay [5], in assay [6] and in [7] was > 100 µM throughout. Moreover, the TGI in assay [8] is > 100 µM.

With `C[N+](C)(C)CC1CCCC1=O` (configuration not stated), the TGI in assay [2] was found to be 8.31 µM; in assay [9], 32.1 µM; in [3], 3.3 µM; in assay [4], 3.87 µM; in [5], 3.15 µM; in [1] it was 3.21 µM. For the same compound, the TGI in [6] stood at 19.9 µM; in assay [7] it was 2.57 µM; in assay [8], 7.79 µM.

For `COC1C(N)C(OC2C(Oc3cccc4c(O)c5c(=O)oc6ccc(C)c7c(=O)oc(c34)c5c67)OC(C)C(O)C2(C)O)OC(C)C1O` (configuration not stated), the TGI in assay [2] came to 0.229 µM; in assay [9] it was 1.45 µM; in assay [3], 3.08 µM; in assay [4] it was 0.208 µM; in [5] it was 0.726 µM; in assay [1], 0.541 µM. Also, the TGI in [6] turned out to be 0.399 µM; in assay [7], 0.148 µM; in assay [8] it was 1.21 µM.

Take `COc1ccc(CCC2c3cc(OC)c(OC)cc3CCN2C)cc1OC` (configuration not stated): the TGI in assay [2], in [3], in [5], in [7] and in [8] was > 100 µM throughout.

Take `CC1(C)CC(=O)C(/C(=N/NC(=S)NN)C(=O)Nc2nc3ccc([N+](=O)[O-])cc3s2)C(=O)C1`: the TGI in assay [2], in assay [3], in [4], in [5], in assay [7] and in assay [8] was > 100 µM each time.

Consider `O=S(=O)(/C=C/C(=C/c1ccccc1)S(=O)(=O)c1ccccc1)c1ccccc1`, for which the TGI in [2] came to 3.32 µM; in [9] it was 2.31 µM; in [4] it was 3.09 µM; in assay [6], 2.9 µM; in [7] it was 3.19 µM.

Regarding `O=C(O)Cc1cccnc1`, the TGI in assay [1] was > 100 µM.

With `Cc1cc(C)nc(NS(=O)(=O)c2ccc(Nc3c4ccccc4nc4c(C(=O)Nc5ccc(S(=O)(=O)N=C(N)N)cc5)cccc34)cc2)n1`, the TGI in assay [2], in assay [9], in [3], in [5], in assay [6] and in [8] was > 100 µM each time.

As to `CC(C)(Br)C(=O)C(Br)Br`, the TGI in [2] was determined as 18.1 µM; in assay [9], 27.1 µM; in assay [4], 23.8 µM; in assay [5], 3.34 µM; in assay [1], 9.54 µM; in assay [6], 26.9 µM. For the same compound, the values for the TGI in assay [7] and in assay [8] were 5.87 µM and 32.2 µM, respectively.

Consider `CC(C)=CC(=O)N(C)C1C2CN3CCC(O2)C13` (configuration not stated), for which the TGI in assay [2], in assay [3], in [4], in assay [5], in assay [6] and in assay [7] was > 100 µM each time. The TGI in assay [8] was > 100 µM.

Turning to `O=C(c1nc2ccccc2[nH]c1=O)C(O)c1ccccc1` (configuration not stated), the TGI in assay [2], in assay [5], in assay [6], in [7] and in assay [8] was > 100 µM throughout.

With `N#CC(c1ccccn1)c1nc2ccccc2[nH]1` (configuration not stated), the TGI in assay [2], in [4], in assay [5] and in [7] was > 100 µM each time.

For the compound `O=C(O)/C=C/c1nc2ccccc2c(=O)o1`, the TGI in assay [2], in assay [3], in assay [5], in assay [6], in assay [7] and in [8] was > 100 µM each time.

For `Cc1cc(N=Nc2ccccc2C)ccc1N`, the TGI in assay [1] amounted to 39.6 µM.
